Assay results taken from paper PMC7219108, “Pisum sativum Defensin 1 Eradicates Mouse Metastatic Lung Nodules from B16F10 Melanoma Cells” (International Journal of Molecular Sciences, 2020).

What was measured:
B16F10 cells [1] = test: SYTOXGreen uptake (membrane permeabilization), B16F10 cells; format: cell-based, murine; conditions: 0.0001% H2O2, 30 min
Experimental: Figure 2 Psd1 promotes B16F10 live cell membrane permeabilization as monitored by SYTOX Green fluorescence. (A) Psd1 untreated and hydrogen peroxide-treated B16F10 cells. (B) A total of 1.5 × 10^4 B16F10 cells were incubated with 3 or 50 µM Psd1 for 30 min. (C) 1.5 × 10^4 B16F10 cells were incubated with 50 µM Psd1 for 1 h. All experiments were performed at 37 °C. Nucleus staining is shown in green (SYTOXGreen), and mitochondria are shown in red (MitoTracker Red CMXRos). Images are shown at 20× magnification. […] (E) Psd1 induces apoptosis in B16F10 cells. B16F10 cells were treated with 50 µM Psd1 for 24 h and labeled with propidium iodide, and the DNA content was analyzed by flow cytometry for the sub-G0/G1 profile. At least two independent experiments were performed. TEXT PRINTED IN THE PICTURE: (E) Control: Sub-G1: 4.4% | (E) Psd1: Sub-G1: 60.6% (50μM)
Images were obtained in the X, Y, and Z planes of the image, giving the image a 3-dimensional depth (Z-stack) at 100× magnification with a Zeiss Cell Observer Yokogawa Spinning Disk confocal microscope (Cell Observed SD, Carl-Zeiss, Oberkochen, Germany) located in the Microscopia Óptica de Luz Gustavo de Oliveira Castro (Plamol) platform in Universidade Federal do Rio de Janeiro. To measure the mean fluorescence intensity (MFI), Zen Lite Blue (Carl-Zeiss, Oberkochen, Germany) software was used. On average, thirty cells per field were analyzed in fourteen fields by experiments. Then, the region of interest (ROI), specifically the nucleus and mitochondria, was tagged on the cells photographed for fluorescence analysis, which is given by the software from the intensity of the pixels. Subsequently, the statistical test was performed using GraphPad Prism version 7.4, and the values presented are averages with the corresponding standard deviations (SDs).
B16F10 cells were trypsinized and counted, and 1.5 × 10^4 cells/well in DMEM containing 0.1% (w/v) bovine serum albumin BSA were plated in a cell-view glass bottom culture dish with four compartments (Thermo Fisher Scientific Inc, Maryland, USA) and then incubated at 37 °C overnight to adhere. Post-treatment, the cells were treated with 3 or 50 µM Psd1 for 30 or 60 min and maintained at the same temperature. Cells treated with only water or 0.0001% H2O2 for 30 min were used as the negative and positive controls, respectively. Washes with saline were carried out between the additions of each probe followed by incubation at room temperature. The cells were incubated with 1 µL of SG, 1.5 µL of MitoTracker Red CMXRos, and 2 µL of DAPI for 10, 20, and 10 min, respectively. The fluorescent images were acquired by confocal microscopy.

B16F10 cells [2] = test: Glucosylceramide depletion study on Psd1 entrance in B16F10 cells; format: cell-based, murine; conditions: 20 µM PPMP, 1 h, without Psd1
Experimental: Figure 4 GlcCer reduction inhibits the entrance of FITC-Psd1 into B16F10 cancer cells. B16F10 cells (1.5 × 10^4) were incubated with or without 20 µM PPMP for 1 h followed by treatment with or without 9 µM FITC-Psd1 for 2 h. Fixed cells were stained with Vybrant™ Alexa Fluor™ 594 and DAPI. (a) B16F10 cells without treatments (−PPMP, −Psd1); (b) B16F10 cells treated with Psd1 for 2 h (–PPMP, +Psd1 (2 h)); (c) B16F10 cells treated with PPMP (+PPMP, −Psd1); (d) B16F10 cells treated with PPMP plus Psd1 (+PPMP, +Psd1 (2 h)). Pictures were acquired at 40× magnification. Inset zoom images are at 100× magnification. At least two experiments were performed independently.
B16F10 cells (1.5 × 10^4) in cover glass were previously incubated with 20 µM DL-threo-1-phenyl-2-palmitoylamino-3-morpholino-1-propanol (PPMP, Sigma-Aldrich Brasil, São Paulo, Brazil) inhibitor for 60 min followed by treatment with 9 µM Psd1 for 30 min or 2 h. The cells were fixed on glass slides with 4% paraformaldehyde plus 4% sucrose for 10 min and then stained with a Vybrant Alexa Fluor 594 Lipid Raft Labeling Kit (Thermo Fisher Scientific Inc, Maryland, USA). Briefly, 1.25 µg/mL cholera toxin subunit B (CT-B) and 160× diluted anti-CT-B were incubated with cells for 10 min each at 4 °C. Three PBS wash steps were performed between each stage. […]

recombinant cyclin F-GST = target: T1, recombinant cyclin F-GST; test: SPR; Biacore X, CM5 chip, 25 °C; cyclin F-GST immobilised by amine coupling (10 mM sodium acetate pH 4.0); Psd1 10-240 µM injected at 15 µL/min for 4 min in 10 mM HEPES, 150 mM NaCl, pH 7.4; Psd1-GST curves subtracted; global fit, 1:1 Langmuir model; conditions: both partners purified
T1 chain: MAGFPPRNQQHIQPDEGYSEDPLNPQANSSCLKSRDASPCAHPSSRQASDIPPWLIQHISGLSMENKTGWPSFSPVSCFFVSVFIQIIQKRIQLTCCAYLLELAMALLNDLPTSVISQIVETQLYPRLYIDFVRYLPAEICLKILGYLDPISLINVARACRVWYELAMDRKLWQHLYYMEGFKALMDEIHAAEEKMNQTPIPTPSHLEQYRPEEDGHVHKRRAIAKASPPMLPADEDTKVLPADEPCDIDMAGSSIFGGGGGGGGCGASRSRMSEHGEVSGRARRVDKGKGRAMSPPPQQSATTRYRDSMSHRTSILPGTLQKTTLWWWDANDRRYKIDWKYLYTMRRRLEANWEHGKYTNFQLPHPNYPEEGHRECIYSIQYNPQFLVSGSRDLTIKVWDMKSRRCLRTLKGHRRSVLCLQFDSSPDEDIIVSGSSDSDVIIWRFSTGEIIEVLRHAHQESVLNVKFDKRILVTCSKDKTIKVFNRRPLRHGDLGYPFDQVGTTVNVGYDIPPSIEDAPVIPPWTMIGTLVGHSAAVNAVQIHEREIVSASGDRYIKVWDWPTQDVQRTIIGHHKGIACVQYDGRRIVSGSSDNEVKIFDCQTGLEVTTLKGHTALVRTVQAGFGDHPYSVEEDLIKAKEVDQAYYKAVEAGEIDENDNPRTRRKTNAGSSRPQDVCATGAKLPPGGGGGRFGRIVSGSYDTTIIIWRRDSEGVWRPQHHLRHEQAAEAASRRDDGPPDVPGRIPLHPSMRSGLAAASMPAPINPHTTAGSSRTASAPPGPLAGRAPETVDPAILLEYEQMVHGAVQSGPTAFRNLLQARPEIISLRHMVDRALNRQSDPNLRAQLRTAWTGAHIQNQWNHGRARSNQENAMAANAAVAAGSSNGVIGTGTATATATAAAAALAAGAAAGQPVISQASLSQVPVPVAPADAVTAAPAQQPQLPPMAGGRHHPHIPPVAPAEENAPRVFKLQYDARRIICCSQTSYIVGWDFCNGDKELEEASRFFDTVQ

OO [hydrogen peroxide, reference compound]
SYTOXGreen fluorescence, positive control (B16F10 cells [1]): green fluorescence signal increased significantly

CCCCCCCCCCCCCCCC(=O)N[C@H](CN1CCOCC1)[C@H](O)c1ccccc1 (racemic) [PPMP, DL-threo-1-phenyl-2-palmitoylamino-3-morpholino-1-propanol]
CT-B / Alexa Fluor 594 red signal (lipid raft; GlcCer) (B16F10 cells [2]): significant reduction in the bright red signal

B1: Pisum sativum defensin 1 (peptide, UniProt P81929 1-46, looked up)
chain: KTCEHLADTYRGVCFTNASCDDHCKNKAHLISGTCHNWKCFCTQNC
notes: Pisum sativum defensin 1 (Psd1), 46-amino acid residue plant defensin from pea seeds; also called Psd1; pea defensin Psd1; source: expressed and purified as previously described [11], first step HiPrep 26/60 Sephacryl S-100 HR; the abstract says Psd1 can be expressed in Pichia pastoris
Kd (recombinant cyclin F-GST): 1.5 mM
